This note sets out measurements from patent publication US20100267720A1, “Crystalline Forms of 2-Hydroxy-3- [5- (Morpholin- 4- Ylmethyl) Pyridin-2-YL] IH- Indole- 5 -Carbonitrile Citrate” (ASTRAZENECA AB, priority 2007, published 2010).

A short description of series [1]: Chemical stability of the salt forms. Type of series: physicochemical. The settings on record: compared with the hydrochloride salt of WO 03/082853. The text has this: The term “chemical stability” means that the compound can be stored in an isolated form, or in the form of a formulation in which it is provided in admixture with pharmaceutically acceptable carriers, diluents or adjuvants (e.g., in an oral dosage form, such as tablet, capsule, etc.), under normal storage conditions, with little or no chemical degradation or decomposition.

The nature of series [2]: Hygroscopicity by Dynamic Vapour Sorption Analysis (DVS). The format is physicochemical. The settings on record: for moisture uptake: 25° C. How it is done: The studies were undertaken using Dynamic Vapour Sorption Apparatus (DVS, Surface Measurement Systems, London UK). The apparatus consists of Cahn micobalance housed inside a temperature-controlled cabinet. All experiments were performed at 25° C. The DVS was used to characterize the moisture uptake (w/w %) at different relative humidities (RH). Samples (5-10 mg) were weighed directly into the DSV sample cup and exposed to different relative humidities.

[3] abbreviates: 40% relative humidity (RH), citrate.
[4] abbreviates: 60% relative humidity (RH), citrate.
[5] abbreviates: 80% relative humidity (RH), citrate.

`N#Cc1ccc2[nH]c(O)c(-c3ccc(CN4CCOCC4)cn3)c2c1.O=C(O)CC(O)(CC(=O)O)C(=O)O` [2-hydroxy-3-[5-(morpholin-4-ylmethyl)pyridin-2-yl]1H-indole-5-carbonitrile citrate]: in series [1], the “chemical stability (in words)” value is reported as “improved chemical stability over the hydrochloride salt”. Moreover, the “hygroscopicity (in words)” value in series [2] (listed as citrate salt of 2-hydroxy-3-[5-(morpholin-4-ylmethyl)pyridin-2-yl]1H-indole-5-ca) is “lower hygroscopicity than the hydrochloride salt”.
For `N#Cc1ccc2[nH]c(O)c(-c3ccc(CN4CCOCC4)cn3)c2c1.O=C(O)CC(O)(CC(=O)O)C(=O)O` [Citrate Form D, 2-Hydroxy-3-[5-(morpholin-4-ylmethyl)pyridin-2-yl]1H-indole-5-carbonitrile citrate], the moisture uptake is 3.2 w/w % in series [2] (setting [3]), 3.6 w/w % in series [2] (setting [4]) and 3.7 w/w % in series [2] (setting [5]).
Turning to `N#Cc1ccc2[nH]c(O)c(-c3ccc(CN4CCOCC4)cn3)c2c1.O=C(O)CC(O)(CC(=O)O)C(=O)O` [Citrate Form E, 2-Hydroxy-3-[5-(morpholin-4-ylmethyl)pyridin-2-yl]1H-indole-5-carbonitrile citrate], the moisture uptake is on record as 0.45 w/w % in series [2] (setting [3]), 0.52 w/w % in series [2] (setting [4]) and 0.60 w/w % in series [2] (setting [5]). Moreover, the “hygroscopicity (in words)” value in series [2] (citrate) is recorded as “very low hygroscopicity”.
